# Test results as given in US8697841B2, “Peptide for transmigration across blood brain barrier and delivery systems comprising the same” (Industrial Technology Research Institute, priority 2009, dated 2014).
# Assay: Hot plate test (PD study)
# Type: in vivo, mice
# Settings: 7.5 mg/kg EM-1, intravenous injection
# Protocol: Hot-plate test was used to evaluate thermal pain reflexes due to footpad contact with a heated surface. The response of the animals to the hot plate reflects a nociceptive behavior, which involves complex circuit integration in the central nervous system.
# Briefly, the mice were individually placed on a […] hot plate apparatus and the time until onset of licking the hindlimb was measured. Basal latency was approximate 2 sec, and cut-off time in the absence of a response (T2) was set at 45 sec. The inhibition of the hindlimb-licking responses were expressed as percent maximal possible effect (% MPE) which was calculated as [(T1−T0)/(T2−T0)]×100, where T0 and T1 were the hot-plate latencies before and after intravenous injection of the EM-1 formulations. The hot-plate latency was determined 10, 20, 30, 60, 120, 180 and 210 min after the formulation injection (7.5 mg/kg EM-1), and the AUC (the area under a curve) values for MPE % versus time (min) plots were calculated.
substance,measurement,value
endomorphin-1 [EM-1],analgesic effect (nociceptive responses) in hot-plate test,did not reduce the nociceptive responses
